Where two headings read alike, the source gives them in different places.

The test system of one assay is human FZD5. The assay can be described thus: TOPFlash reporter gene assay in ΔFZD1–10 HEK293T cells transfected with HiBiT-FZD5. It is filed as cell-based. The settings on record: for IC50: Homo sapiens, HEK-293T, 300 ng/ml WNT-3A, HiBiT-FZD5.
The next assay has as its target T1, Nluc-FZD6 (Homo sapiens, UniProt O60353).
T1 construct: expressed in transfected cells; host or cells: ΔSMO HEK293A or ΔFZD1–10 HEK293T cells (screen); ΔFZD1–10 HEK293T cells (concentration–response curves)
T1 sequence (O60353 19-706): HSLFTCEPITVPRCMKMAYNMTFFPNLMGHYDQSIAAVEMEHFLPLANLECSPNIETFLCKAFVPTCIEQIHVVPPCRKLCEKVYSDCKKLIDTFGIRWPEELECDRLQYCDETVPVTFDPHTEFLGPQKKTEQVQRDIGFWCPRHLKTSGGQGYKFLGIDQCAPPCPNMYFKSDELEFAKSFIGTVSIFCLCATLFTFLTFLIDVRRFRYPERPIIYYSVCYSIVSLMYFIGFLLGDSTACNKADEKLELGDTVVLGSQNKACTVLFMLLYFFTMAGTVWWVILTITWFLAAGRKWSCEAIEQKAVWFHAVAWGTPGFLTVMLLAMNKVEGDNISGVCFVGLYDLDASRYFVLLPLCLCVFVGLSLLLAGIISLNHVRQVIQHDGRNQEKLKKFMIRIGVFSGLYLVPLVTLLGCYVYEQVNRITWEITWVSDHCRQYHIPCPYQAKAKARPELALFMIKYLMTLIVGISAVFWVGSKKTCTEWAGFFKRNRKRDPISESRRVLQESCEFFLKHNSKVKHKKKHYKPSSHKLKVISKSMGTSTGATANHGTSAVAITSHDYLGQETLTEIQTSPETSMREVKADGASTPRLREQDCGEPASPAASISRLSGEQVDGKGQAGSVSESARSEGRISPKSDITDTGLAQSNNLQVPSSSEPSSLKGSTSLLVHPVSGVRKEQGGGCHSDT
The assay can be described thus: BRET-based BODIPY-cyclopamine competition binding at Nluc-FZD6 in live HEK293 cells. Here is the method:
After 24 h, cells were washed once with Hanks' balanced salt solution (HBSS), followed by the addition of 80 μl of HBSS. Next, 10 μl of the competitive ligand, that is, the tested SAG1.3 derivative (either in different concentrations for the concentration–response curves or at a final concentration of 10 μM for the first screens) and 10 μl of the fluorescent tracer BODIPY–cyclopamine (final concentration: 300 nM for the first screens, 200 nM for the concentration–response experiments) were added. All serial dilutions were prepared in HBSS. The cells were incubated for 90 min at 37 °C without additional CO2, after which 10 μl of luciferase substrate diluted in HBSS (furimazine; Promega, N1572, final dilution: 1:1000 for first screening) and coelenterazine h (Biosynth; final concentration: 5 μM for concentration–response experiments) were added to the cells. Following a 10 min incubation period in the dark, the measurement was started on a BMG Labtech ClarioStar or TECAN Spark multimode microplate reader, prewarmed to 37 °C. Nluc bioluminescence was detected between 460 and 490 nm (ClarioStar) or 460 and 500 nm (TECAN Spark). The emission of the fluorescent tracer was detected between 520 and 550 nm (ClarioStar) or between 520 and 560 nm (TECAN Spark).
For each binding experiment, the measurement was repeated five times and averaged for the analysis. ΔBRET values were obtained by subtracting the BRET ratio obtained in wells containing BODIPY–cyclopamine but no competitive ligand (100% value). The BRET values for full displacement were defined using “donor-only” control wells, which contained Nluc-FZDx-transfected cells but no BODIPY–cyclopamine.
For the full concentration–response BRET binding curves in Figure 2, BRET values were normalized (separately for each experiment) to control wells containing BODIPY–cyclopamine but no competitive ligand (100% value) and “donor-only” wells (0% value, described previously). […] Obtained IC50 values were transformed to pIC50 values, which were subsequently averaged between experiments. Displacement curves showing the non-normalized data (ΔBRET values generated as described previously) can be found in Fig. S2.
Shown are mean values and SDs from N independent experiments (N = 2-8) performed in duplicate.
Shown are mean values ± SEM from N independent experiments performed in triplicate.

The test system of another assay is FZD5–DEP–Clamp sensor. Put plainly: FZD5–DEP–Clamp BRET sensor in stably expressing HEK293A cells. It is filed as cell-based, human. The method, then:
To generate the stable FZD5–DEP–Clamp cell line, HEK293A cells were seeded at a density of 500,000 cells/well in a 6-well plate. On the next day, the adherent cells were transfected with 2 μg of FZD5–DEP–Clamp (TK) plasmid using PEI as the transfection reagent. After 2 days of transfection, cells were detached and transferred to a 75 cm^2 flask. Stably transfected cells were selected using complete medium (DMEM + 10% fetal calf serum + 1% penicillin–streptomycin) supplemented with 2000 μg/ml G-418 sulfate (Gibco; catalog no.: 10131027) for 3 weeks. After obtaining stable growth, cell culture of the stable cell line was continued with 500 μg/ml G-418.
For kinetic experiments with the FZD5–DEP–Clamp sensor, BRET values were first baseline-corrected for every well separately by subtracting the average of the first three reads prior ligand addition. Afterward, the average values for vehicle-containing wells were subtracted for every timepoint to get access to actual ligand-induced changes in BRET ratio (ΔBRET values).
Figure S4. […] (A) Shown is the BRET time-course recorded upon addition of 30 µM compound 11 or vehicle (DMSO). […] The cell surface pool of transiently-transfected HiBiT-FZD5 (B) and HiBiT-FZD6 (C) was assessed by addition of recombinant LgBiT in combination with detection of NanoBiT luminescence. […]

Take `CC(=O)Nc1cccc(C(=O)NC2CCC(N(Cc3cccc(-c4ccncc4)c3)C(=O)c3sc4ccccc4c3Cl)CC2)c1` (stereo not shown) [compound 11, N-((1r,4r)-4-(3-Acetamidobenzamido)cyclohexyl)-3-chloro-N-(3-(pyridin-4-yl)benzyl)benzo[b]thiophene-2-carboxamide]: the IC50 in the assay on human FZD5 (equal to the pIC50, read-out: IC50, inhibition of WNT-3A-induced TOPFlash response) is 1200 nM; in the assay with human FZD5 (read-out: pIC50, inhibition of WNT-3A-induced TOPFlash response (converted)) it was 1200 nM; on Nluc-FZD6 (BODIPY-cyclopamine 200 nM, ΔFZD1-10 HEK293T cells, read-out: pIC50 (Nluc-FZD6) mean ± SEM (converted)) it was 1020 nM. Besides, the “Effect on WNT surrogate-induced TOPFlash signal” value in the assay with human FZD5 (WNT surrogate 250 pM, coaddition of compound) is “could also be blocked”. Moreover, the “TOPFlash response to compound alone” value in the assay with human FZD5 (absence of added WNT-3A) was “not inducing any effect”. Also, at Nluc-FZD6 (10 µM compound, BODIPY-cyclopamine 300 nM, BMG Labtech ClarioStar reader (complete tracer displacement: net BRET = -0.02736)), the “Displacement @ 10 µM compound (Nluc-FZD6) ΔBRET” value is listed as -0.0228. Further, the Displacement % on Nluc-FZD6 (10 µM compound, BODIPY-cyclopamine 300 nM, ClarioStar reader) turned out to be 83.2%. For the same compound, at Nluc-FZD6 (Nluc-FZD6 and other FZD paralogs), the “IC50 values of competition binding within the FZD family (in words)” value is recorded as “three-digit nanomolar to single-digit micromolar range”. The “Effect on WNT-induced FZD5–DEP–Clamp response” value with FZD5–DEP–Clamp sensor (500 ng/ml high-purity WNT-3A with 30 μM compound) is “able to interfere with the WNT-induced effects”. Besides, the “BRET response of FZD5–DEP–Clamp, compound alone” value with FZD5–DEP–Clamp sensor (30 µM compound, agonist mode) is listed as “did not elicit a robust change in BRET response”.
